Test results reported in US8586747B2, “3,3-dimethyl tetrahydroquinoline derivatives” (Hoffmann-La Roche Inc., priority 2010, dated 2013).

test system: AMP-activated protein kinase (AMPK); assay: ADP Quest assay for AMPK activators; format: biochemical; parameters: key: fold AMPK activation with vs without activator at 30 µM; settings: fold of AMPK activation to phosphorylate SAMS peptide without and with an activator at the concentration of 30 µM
Procedure, shortened: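 E30, the fold increase in SAMS peptide phosphorylation at 30 µM compound relative to no activator, is derived from kinetic fluorescent detection of ADP (ex 530, em 590 nm). AMPK starts the ATP-containing reaction at room temperature; compounds span […] by 2-fold steps, AMP serves as reference.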

| E30 | SMILES |
| --- | --- |
| 1.24 | CC1(C)Cc2cc(C(=O)O)ccc2NC1c1ccc(F)c(NC(=O)c2ccccc2)c1 (stereo not drawn) [Example 184, 2-(3-Benzamido-4-fluorophenyl)-3,3-dimethyl-1,2,3,4-tetrahydroquinoline-6-carboxylic acid] |
| 1.22 | CC1(C)Cc2cc(C(=O)O)ccc2NC1c1ccc(NC(=O)c2ccccc2)cc1 (stereo not drawn) [Example 185, 2-(4-Benzamidophenyl)-3,3-dimethyl-1,2,3,4-tetrahydroquinoline-6-carboxylic acid] |
| 1.21 | CC1(C)Cc2cc(C(=O)O)ccc2NC1c1ccc(NC(=O)c2ccccn2)cc1 (stereo not drawn) [Example 186, 3,3-Dimethyl-2-(4-(picolinamido)phenyl)-1,2,3,4-tetrahydroquinoline-6-carboxylic acid] |
| 1.38 | CNC(=O)c1cccc(C2Nc3ccc(C(=O)O)cc3CC2(C)C)c1 (stereo not drawn) [Example 187, 3,3-Dimethyl-2-(3-(methylcarbamoyl)phenyl)-1,2,3,4-tetrahydroquinoline-6-carboxylic acid] |
| 1.31 | CC1(C)Cc2cc(C(=O)O)ccc2NC1c1ccc(F)c(NC(=O)C2CC2)c1 (stereo not drawn) [Example 189, 2-(3-(Cyclopropanecarboxamido)-4-fluorophenyl)-3,3-dimethyl-1,2,3,4-tetrahydroquinoline-6-carboxylic acid] |
| 1.3 | CC1(C)Cc2cc(C(=O)O)ccc2NC1c1ccc(F)c(NC(=O)c2ccc(F)cc2Cl)c1 (stereo not drawn) [Example 190, 2-(3-(2-Chloro-4-fluorobenzamido)-4-fluorophenyl)-3,3-dimethyl-1,2,3,4-tetrahydroquinoline-6-carboxylic acid] |
| 1.27 | CC1(C)Cc2cc(C(=O)O)ccc2NC1c1cccc(C(=O)N2CCCCC2)c1 (stereo not drawn) [Example 191, 3,3-Dimethyl-2-(3-(piperidine-1-carbonyl)phenyl)-1,2,3,4-tetrahydroquinoline-6-carboxylic acid] |
| 1.27 | COCCNC(=O)c1cccc(C2Nc3ccc(C(=O)O)cc3CC2(C)C)c1 (stereo not drawn) [Example 192, 2-(3-(2-Methoxyethylcarbamoyl)phenyl)-3,3-dimethyl-1,2,3,4-tetrahydroquinoline-6-carboxylic acid] |
| 1.26 | CC1(C)Cc2cc(C(=O)O)ccc2NC1c1ccc(NC(=O)Cc2ccccc2)cc1 (stereo not drawn) [Example 193, 3,3-Dimethyl-2-(4-(2-phenylacetamido)phenyl)-1,2,3,4-tetrahydroquinoline-6-carboxylic acid] |
| 1.25 | CC1(C)Cc2cc(C(=O)O)ccc2NC1c1ccc(F)c(NC(=O)C2CCC2)c1 (stereo not drawn) [Example 194, 2-(3-(Cyclobutanecarboxamido)-4-fluorophenyl)-3,3-dimethyl-1,2,3,4-tetrahydroquinoline-6-carboxylic acid] |
| 1.25 | CC1(C)Cc2cc(C(=O)O)ccc2NC1c1ccc(Cl)c(NC(=O)C2CCCCC2)c1 (stereo not drawn) [Example 195, 2-(4-Chloro-3-(cyclohexanecarboxamido)phenyl)-3,3-dimethyl-1,2,3,4-tetrahydroquinoline-6-carboxylic acid] |
| 1.25 | CC1(C)Cc2cc(C(=O)O)ccc2NC1c1ccc(F)c(NC(=O)C2CCCC2)c1 (stereo not drawn) [Example 196, 2-(3-(Cyclopentanecarboxamido)-4-fluorophenyl)-,3-dimethyl-1,2,3,4-tetrahydroquinoline-6-carboxylic acid] |
| 1.22 | COC(=O)c1ccc2c(c1)CC(C)(C)C(c1cccc(C(=O)Nc3cnccn3)c1)N2 (stereo not drawn) [Example 197, Methyl 3,3-dimethyl-2-(3-(pyrazin-2-ylcarbamoyl)-phenyl)-1,2,3,4-tetrahydroquinoline-6-carboxylate] |
| 1.58 | CC1(C)Cc2cc(C(=O)O)ccc2NC1c1cccc(C(N)=O)c1 (stereo not drawn) [Example 200, 2-(3-Carbamoylphenyl)-3,3-dimethyl-1,2,3,4-tetrahydroquinoline-6-carboxylic acid] |
| 1.42 | CC1(C)Cc2cc(C(=O)O)ccc2NC1c1cccc(NS(C)(=O)=O)c1 (stereo not drawn) [Example 201, 3,3-Dimethyl-2-(3-(methylsulfonamido)phenyl)-1,2,3,4-tetrahydroquinoline-6-carboxylic acid] |
| 1.22 | CC1(C)Cc2cc(C(=O)O)ccc2NC1c1cc(Cl)cc(NC(=O)c2ccccc2)c1 (stereo not drawn) [Example 202, 2-(3-Benzamido-5-chlorophenyl)-3,3-dimethyl-1,2,3,4-tetrahydroquinoline-6-carboxylic acid] |
| 1.53 | CN(C)CCNC(=O)c1cccc(C2Nc3ccc(C(=O)O)cc3CC2(C)C)c1 (stereo not drawn) [Example 203, 2-(3-(2-(Dimethylamino)ethylcarbamoyl)phenyl)-3,3-dimethyl-1,2,3,4-tetrahydroquinoline-6-carboxylic acid] |
| 1.4 | CC(=O)Nc1cccc(C2Nc3ccc(C(=O)O)cc3CC2(C)C)c1 (stereo not drawn) [Example 204, 2-(3-Acetamidophenyl)-3,3-dimethyl-1,2,3,4-tetrahydroquinoline-6-carboxylic acid] |

| E30 | SMILES |
| --- | --- |
| 1.38 | CCN1CCCC1CNC(=O)c1cccc(C2Nc3ccc(C(=O)O)cc3CC2(C)C)c1 (stereo not drawn) [Example 205, 2-(3-((1-Ethylpyrrolidin-2-yl)methylcarbamoyl)phenyl)-3,3-dimethyl-1,2,3,4-tetrahydroquinoline-6-carboxylic acid] |
| 1.33 | CC1(C)Cc2cc(C(=O)O)ccc2NC1c1ccc(F)c(NS(=O)(=O)c2cccc(F)c2)c1 (stereo not drawn) [Example 206, 2-(4-Fluoro-3-(3-fluorophenylsulfonamido)phenyl)-3,3-dimethyl-1,2,3,4-tetrahydroquinoline-6-carboxylic acid] |
| 1.3 | CN1CC(NC(=O)c2cccc(C3Nc4ccc(C(=O)O)cc4CC3(C)C)c2)C1 (stereo not drawn) [Example 208, 3,3-Dimethyl-2-(3-(1-methylazetidin-3-ylcarbamoyl)phenyl)-1,2,3,4-tetrahydroquinoline-6-carboxylic acid] |
| 1.28 | CC1(C)Cc2cc(C(=O)O)ccc2NC1c1ccc(F)c(NS(=O)(=O)c2ccccc2F)c1 (stereo not drawn) [Example 209, 2-(4-Fluoro-3-(2-fluorophenylsulfonamido)phenyl)-,3-dimethyl-1,2,3,4-tetrahydroquinoline-6-carboxylic acid] |
| 1.41 | CC1(C)Cc2cc(C(=O)O)ccc2NC1c1ccc(F)c(NC(=O)C2CCCCC2)c1 (stereo not drawn) [Example 211, 2-(3-(Cyclohexanecarboxamido)-4-fluorophenyl)-3,3-dimethyl-1,2,3,4-tetrahydroquinoline-6-carboxylic acid] |
| 1.28 | CC1(C)Cc2cc(C(=O)O)ccc2NC1c1ccc(NS(=O)(=O)c2cccc(F)c2)cc1 (stereo not drawn) [Example 212, 2-(4-(3-Fluorophenylsulfonamido)phenyl)-3,3-dimethyl-1,2,3,4-tetrahydroquinoline-6-carboxylic acid] |
| 1.27 | CC1(C)Cc2cc(C(=O)O)ccc2NC1c1ccc(NS(=O)(=O)c2ccccc2F)cc1 (stereo not drawn) [Example 213, 2-(4-(2-Fluorophenylsulfonamido)phenyl)-3,3-dimethyl-1,2,3,4-tetrahydroquinoline-6-carboxylic acid] |
| 1.41 | CC1(C)Cc2cc(C(=O)O)ccc2NC1c1ccccc1NC(=O)C1CC1 (stereo not drawn) [Example 214, 2-(2-(Cyclopropanecarboxamido)phenyl)-3,3-dimethyl-1,2,3,4-tetrahydroquinoline-6-carboxylic acid] |
| 1.38 | CC1(C)Cc2cc(C(=O)O)ccc2NC1c1ccc(NC(=O)C2CCC2)cc1 (stereo not drawn) [Example 215, 2-(4-(Cyclobutanecarboxamido)phenyl)-3,3-dimethyl-1,2,3,4-tetrahydroquinoline-6-carboxylic acid] |
| 1.36 | CC1(C)Cc2cc(C(=O)O)ccc2NC1c1ccccc1NC(=O)C1CCC1 (stereo not drawn) [Example 216, 2-(2-(Cyclobutanecarboxamido)phenyl)-3,3-dimethyl-1,2,3,4-tetrahydroquinoline-6-carboxylic acid] |
| 1.27 | CC1(C)Cc2cc(C(=O)O)ccc2NC1c1ccc(NC(=O)C2=CCCCC2)cc1 (stereo not drawn) [Example 217, 2-(4-(Cyclohex-1-enecarboxamido)phenyl)-3,3-dimethyl-1,2,3,4-tetrahydroquinoline-6-carboxylic acid] |
| 2.53 | CC1(C)Cc2cc(C(=O)O)ccc2NC1c1ccccc1NS(=O)(=O)c1ccc(F)cc1 (stereo not drawn) [Example 218, 2-(2-(4-Fluorophenylsulfonamido)phenyl)-3,3-dimethyl-1,2,3,4-tetrahydroquinoline-6-carboxylic acid] |
| 2.57 | CC1(C)Cc2cc(C(=O)O)ccc2NC1c1ccccc1NS(=O)(=O)c1ccccc1F (stereo not drawn) [Example 219, 2-(2-(2-Fluorophenylsulfonamido)phenyl)-3,3-dimethyl-1,2,3,4-tetrahydroquinoline-6-carboxylic acid] |
| 1.89 | CC1(C)Cc2cc(C(=O)O)ccc2NC1c1ccccc1NS(=O)(=O)c1ccccc1 (stereo not drawn) [Example 220, 3,3-Dimethyl-2-(2-(phenylsulfonamido)phenyl)-1,2,3,4-tetrahydroquinoline-6-carboxylic acid] |
| 1.33 | CC(C)NS(=O)(=O)c1cccc(C2Nc3ccc(C(=O)O)cc3CC2(C)C)c1 (stereo not drawn) [Example 221, 2-(3-(N-isopropylsulfamoyl)phenyl)-3,3-dimethyl-1,2,3,4-tetrahydroquinoline-6-carboxylic acid] |
| 2.09 | CC1(C)Cc2cc(C(=O)O)ccc2NC1c1ccccc1NS(=O)(=O)c1cccc(F)c1 (stereo not drawn) [Example 222, 2-(2-(3-Fluorophenylsulfonamido)phenyl)-3,3-dimethyl-1,2,3,4-tetrahydroquinoline-6-carboxylic acid] |
| 1.94 | CC1(C)Cc2cc(C(=O)O)ccc2NC1c1ccccc1NS(C)(=O)=O (stereo not drawn) [Example 223, 3,3-Dimethyl-2-(2-(methylsulfonamido)phenyl)-1,2,3,4-tetrahydroquinoline-6-carboxylic acid] |

| SMILES | E30 |
| --- | --- |
| CC(C)(C)OC(=O)N1CC(NC(=O)c2cccc(C3Nc4ccc(C(=O)O)cc4CC3(C)C)c2)C1 (stereo not drawn) [Example 207, 2-(3-(1-(Tert-butoxycarbonyl)azetidin-3-ylcarbamoyl)phenyl)-3,3-dimethyl-1,2,3,4-tetrahydroquinoline-6-carboxylic acid] | 1.32 |
